Test results from patent US7777038B2, “Carbostyril compound” (Otsuka Pharmaceutical Co., Ltd., priority 2004, dated 2010).

Tests used:
[1] = test system: human Trefoil Factor 2 (hTFF2) gene; test: hTFF2 gene reporter assay (luciferase) using pGL3-hTFF2pro•pWL-neo/MKN-45 #6-2 cell line; type: cell-based; details: test compound concentration 10^−6 M; 24 hours culture; luciferase activity as control % of dimethylsulfoxide-added wells (100%)
Protocol: Transcription promoting activity on human Trefoil Factor 2 (hTFF2) gene of test compounds was evaluated by means of an hTFF2 gene reporter assay.
(1) Preparation of hTFF2 Gene Reporter Vector pGL3-hTFF2pro
DNA was extracted from HeLa cells (CCL-2, DAINIPPON PHARMACEUTICAL CO., LTD.) using a deoxyribonucleic acid (DNA) extraction kit (DNeasy™ Tissue Kit, manufactured by QIAGEN). The hTFF2 promoter region was amplified using the extracted DNA as a template by means of the polymerase chain reaction (PCR). The oligomers 5′-[…]-3′ and 5′-[…]-3′ were selected as PCR primers to be amplified, based on the report by Beck et al. (Beck S., Sommer P., Blin N., Gott P., 5′-flanking motifs control cell-specific expression of trefoil factor genes (TFF), Int. J. Mol. Med. 2(3), 353-361 (1998)). Platinum® Pfx DNA polymerase was used as DNA polymerase. The PCR was performed under the conditions of denaturing for 30 seconds at 95° C., annealing for 30 seconds at 55° C. and extending for 75 seconds at 68° C., and the procedures were repeated for 32 cycles.
The PCR products were separated and purified by 1% agarose gel electrophoresis, and cloned to a pCR-BluntII-TOPO vector attached to a cloning kit (Zero Blunt® TOPO® PCR Cloning Kit, manufactured by Invitrogen Corporation). The produced plasmid pCR-Blunt-TFF2pro was introduced into E. coli for transformation (TOP 10 Ultracomp™ Cells, manufactured by Invitrogen Corporation), and transformant strain pCR-Blunt-TFF2pro/TOP10 was selectively cultured in LB agar medium containing 30 μg/ml of Zeocin (Zeocin, manufactured by Invitrogen Corporation). The pCR-Blunt-TFF2pro/TOP10 was subjected to shaking culture in 50 ml of LB medium containing 30 μg/ml of Zeocin at 37° C. over night, and a plasmid was prepared using a plasmid preparation kit (Concert™ High Purity Midiprep System, manufactured by GIBCO BRL).
The nucleotide sequence of the PCR product cloned to the plasmid pCR-Blunt-TFF2pro was determined. The determined nucleotide sequence was compared with the counterpart of hTFF2 promoter region reported in a gene bank (GenBank accession AB038162). The nucleotide sequence of the MluI-HindIII region cloned in pCR-Blunt-TFF2pro was identical to GenBank accession AB038162 (FIG. 1).
The underlined portions indicate the recognition sequence (ACGCGT) of the restriction enzyme MluI and the recognition sequence (AAGCTT) of the restriction enzyme HindIII. The nucleotide sequences of the MluI-HindIII region are identical between the hTFF2 promoter region reported in GenBank and the PCR product cloned to the plasmid pCR-Blunt-TFF2pro. […]

| SMILES | melting point | TFF2 Production Promoting Activity [1] |
| --- | --- | --- |
| O=C1NC(=O)C(Cc2ccc(O)c3c2CCC(=O)N3Cc2ccccc2)S1 (centres unmarked) [Example 31, 5-(1-benzyl-8-hydroxy-2-oxo-1,2,3,4-tetrahydroquinolin-5-ylmethyl)thiazolidine-2,4-dione] | 213.2 to 213.7 °C | – |
| COc1ccc(C=C2SC(=O)NC2=O)c2ccc(=O)n(C)c12 [Example 9, 5-[1-(8-Methoxy-1-methyl-2-oxo-1,2-dihydroquinolin-5-yl)methylidene]thiazolidine-2,4-dione] | ≥ 300 °C | – |
| COc1ccc(C2SC(=O)NC2=O)c2ccc(=O)n(C)c12 (centres unmarked) [Example 4, 5-(8-methoxy-1-methyl-2-oxo-1,2-dihydroquinolin-5-yl)thiazolidine-2,4-dione] | 255 °C (dec.) | – |
| COc1ccc(CC2SC(=O)NC2=O)c2c1N(Cc1ccc(N)cc1)C(=O)CC2 (centres unmarked) [Example 21, 5-[1-(4-aminobenzyl)-8-methoxy-2-oxo-1,2,3,4-tetrahydroquinolin-5-ylmethyl]thiazolidine-2,4-dione] | 174.1 to 174.8 °C | – |
| CCC(=O)Nc1ccc(CN2C(=O)CCc3c(CC4SC(=O)NC4=O)ccc(OC)c32)cc1 (centres unmarked) [Example 228] | 198.3 to 200.3 °C | – |
| O=C1NC(=S)SC1Cc1cccc2c1CCC(=O)N2Cc1ccc(-c2ccccc2)cc1 (centres unmarked) [Example 46, 1-(biphenyl-4-ylmethyl)-5-(4-oxo-2-thioxothiazolidin-5-ylmethyl)-3,4-dihydro-1H-quinolin-2-one] | 186.3 to 187.1 °C | – |
| COc1ccc(CCC2SC(=O)NC2=O)c2ccc(=O)n(C)c12 (centres unmarked) [Example 2, 5-[2-(8-methoxy-1-methyl-2-oxo-1,2-dihydroquinolin-5-yl)ethyl]thiazolidine-2,4-dione] | 222 to 224 °C | – |
| O=C1NC(=O)C(Cc2cc(=O)[nH]c3ccccc23)S1 (centres unmarked) [Example 111] | 290 to 291 °C | – |
| CC(=O)N1CCC(CCN2C(=O)CCc3c(CC4SC(=O)NC4=O)cccc32)CC1 (centres unmarked) [Example 614] | 209.5 to 211 °C | – |
| Cl.O=C1NC(=S)SC1Cc1cccc2c1CCC(=O)N2Cc1ccc(Cl)nc1 (centres unmarked) | 70 to 80 °C | – |
| Cn1c(=O)cc(CC2SC(=O)NC2=O)c2ccccc21 (centres unmarked) [Example 112] | 246 to 248 °C | – |
| CCCCOc1ccc(CC2SC(=O)NC2=O)c2c1N(Cc1ccccc1)C(=O)CC2 (centres unmarked) [Example 32, 5-(1-benzyl-8-butoxy-2-oxo-1,2,3,4-tetrahydroquinolin-5-ylmethyl)thiazolidine-2,4-dione] | – | + (a TFF2 production promoting activity of 300% or higher at a test compound concentration of 10^−6 M) |
| COc1ccc(C=C2SC(=O)N(C)C2=O)c2ccc(=O)n(C)c12 [Example 10, 5-[1-(8-Methoxy-1-methyl-2-oxo-1,2-dihydroquinolin-5-yl)methylidene]-3-methylthiazolidine-2,4-dione] | 270 °C (dec.) | – |
| COC(=O)Nc1ccc(CN2C(=O)CCc3c(CC4SC(=O)NC4=O)ccc(OC)c32)cc1 (centres unmarked) [Example 230] | 136.3 to 138.6 °C | – |
| CCN1C(=O)CCc2c(CC3SC(=O)NC3=O)ccc(OC)c21 (centres unmarked) [Example 147] | 179 to 181 °C | – |
| O=C1NC(=O)C(Cc2cc3ccccc3n(Cc3ccc(-c4ccccc4)cc3)c2=O)S1 (centres unmarked) [Example 17, 5-[1-(Biphenyl-4-ylmethyl)-2-oxo-1,2-dihydroquinolin-3-ylmethyl]thiazolidine-2,4-dione] | 220.4 to 221.8 °C | – |

| SMILES | melting point | TFF2 Production Promoting Activity [1] |
| --- | --- | --- |
| CN1C(=O)SC(Cc2cc(=O)n(C)c3ccccc23)C1=O (centres unmarked) [Example 113] | 143 to 145 °C | – |
| CCNC(=O)Nc1ccc(CN2C(=O)CCc3c(CC4SC(=O)NC4=O)ccc(OC)c32)cc1 (centres unmarked) [Example 227] | 195.7 to 196.9 °C | – |
| COc1ccc(CC2SC(=O)NC2=O)c2c1N(Cc1ccc(NC(=O)c3ccc4ccccc4c3)cc1)C(=O)CC2 (centres unmarked) [Example 22, 5-{8-methoxy-1-[4-(2-naphthoylamino)benzyl]-2-oxo-1,2,3,4-tetrahydroquinolin-5-ylmethyl}thiazolidine-2,4-dione] | – | ++ (a TFF2 production promoting activity of 1000% or higher at a test compound concentration of 10^−6 M) |
| COc1ccc(CC2SC(=O)NC2=O)c2c1NC(=O)CC2 (centres unmarked) [Example 146] | 253 to 256 °C | – |
| COc1ccc(CC2SC(=O)NC2=O)c2c1N(CC(=O)O)C(=O)CC2 (centres unmarked) [Example 34, 5-(1-carboxymethyl-8-methoxy-2-oxo-1,2,3,4-tetrahydroquinolin-5-ylmethyl)thiazolidine-2,4-dione] | 251 to 255 °C | – |
| COc1ccc(CC2SC(=O)NC2=O)c2c1N(Cc1ccc(C(=O)Nc3ccc(C(C)C)cc3)cc1)C(=O)CC2 (centres unmarked) [Example 27, 5-{1-[4-(4-isopropylphenylaminocarbonyl)benzyl]-8-methoxy-2-oxo-1,2,3,4-tetrahydroquinolin-5-ylmethyl}thiazolidine-2,4-dione] | 243 to 244 °C | – |
| COc1ccc(CCCC2SC(=O)NC2=O)c2ccc(=O)n(C)c12 (centres unmarked) [Example 3, 5-[3-(8-methoxy-1-methyl-2-oxo-1,2-dihydroquinolin-5-yl)propyl]thiazolidine-2,4-dione] | 172 to 175 °C | – |
| O=C1NC(=S)SC1Cc1cccc2c1CCC(=O)N2Cc1ccc(Br)cc1 (centres unmarked) [Example 47, 1-(4-bromobenzyl)-5-(4-oxo-2-thioxothiazolidin-5-ylmethyl)-3,4-dihydro-1H-quinolin-2-one] | 191.3 to 192.1 °C | – |
| COc1ccc(CC2SC(=O)NC2=O)c2c1N(Cc1ccc([N+](=O)[O-])cc1)C(=O)CC2 (centres unmarked) [Example 20, 5-[8-methoxy-1-(4-nitrobenzyl)-2-oxo-1,2,3,4-tetrahydroquinolin-5-ylmethyl]thiazolidine-2,4-dione] | 246.5 to 246.6 °C | – |
| O=C1NC(=O)C(Cc2cc(=O)n(Cc3ccc(Cl)cc3)c3ccccc23)S1 (centres unmarked) [Example 14, 5-[1-(4-chlorobenzyl)-2-oxo-1,2-dihydroquinolin-4-ylmethyl]thiazolidine-2,4-dione] | 142.1 to 143.7 °C | – |
| O=C1NC(=O)C(Cc2ccc3c(c2)N(Cc2ccc(-c4ccccc4)cc2)C(=O)CC3)S1 (centres unmarked) [Example 18, 5-[1-(Biphenyl-4-ylmethyl)-2-oxo-1,2,3,4-tetrahydroquinolin-7-ylmethyl]thiazolidine-2,4-dione] | 213.2 to 213.7 °C | – |
| COc1ccc(CC2SC(=O)NC2=O)c2c1N(Cc1ccc(NC(C)=O)cc1)C(=O)CC2 (centres unmarked) [Example 229] | 215.2 to 217.8 °C | – |
| COc1ccc(CC2SC(=O)NC2=O)c2c1N(C)C(=O)CC2 (centres unmarked) [Example 145] | 204 to 208 °C | – |
| CCCCCOC(=O)Nc1ccc(CN2C(=O)CCc3c(CC4SC(=O)NC4=O)ccc(OC)c32)cc1 (centres unmarked) [Example 23, 5-[1-(4-pentyloxycarbonylaminobenzyl)-8-methoxy-2-oxo-1,2,3,4-tetrahydroquinolin-5-ylmethyl]thiazolidine-2,4-dione] | 98 to 102 °C | – |
| COC(=O)CN1C(=O)SC(Cc2ccc(OC)c3c2ccc(=O)n3C)C1=O (centres unmarked) [Example 43, 3-methoxycarbonylmethyl-5-(8-methoxy-1-methyl-2-oxo-1,2-dihydroquinolin-5-ylmethyl)thiazolidine-2,4-dione] | 182 to 184 °C | – |
| COc1ccc(CC2SC(=O)NC2=O)c2c1N(Cc1ccc(NC(=O)c3cccnc3)cc1)C(=O)CC2 (centres unmarked) [Example 231] | 233 to 234.2 °C | – |
